Source: patent US20260200905A1, “MICROBIOCIDAL TETRAHYDROISOQUINOLINE DERIVATIVES” (SYNGENTA CROP PROTECTION AG, priority 2022, published 2026)

Key:
Type in all cases: cell-based
[1] = tested on: Mycosphaerella graminicola (Septoria tritici); assay: Mycosphaerella graminicola (Septoria tritici) / liquid culture (Septoria blotch); details: Zymoseptoria tritici, growth inhibition photometrically 4 to 5 days after application, read-out: control of Mycosphaerella graminicola
Description: (§1) Example B12: Mycosphaerella graminicola (Septoria tritici)/Liquid Culture (Septoria Blotch) Conidia of the fungus from cryogenic storage are directly mixed into nutrient broth (PDB potato dextrose broth). After placing a (DMSO) solution of test compound into a microtiter plate (96-well format), the nutrient broth containing the fungal spores is added. The test plates are incubated at 24° C. and the inhibition of growth is determined photometrically 4 to 5 days after application.

[2] = tested on: Mycosphaerella arachidis (Cercospora arachidicola); assay: Mycosphaerella arachidis (Cercospora arachidicola) / liquid culture (early leaf spot); details: growth inhibition photometrically 4 to 5 days after application, read-out: control of Mycosphaerella arachidis
Description: as §1, with “B6:” for “B12:”, “arachidis (Cercospora arachidicola)/Liquid” for “graminicola (Septoria tritici)/Liquid”, “(Early Leaf Spot)” for “(Septoria Blotch)”

[3] = tested on: Monographella nivalis (Microdochium nivale); assay: Monographella nivalis (Microdochium nivale) / liquid culture (foot rot cereals); details: growth inhibition photometrically 4 to 5 days after application, read-out: control of Monographella nivalis
Description: as §1, with “B5: Monographella nivalis (Microdochium nivale)/Liquid” for “B12: Mycosphaerella graminicola (Septoria tritici)/Liquid”, “(Foot Rot Cereals)” for “(Septoria Blotch)”

| SMILES | inhibition of growth at 20 ppm [1] [%] | inhibition of growth at 20 ppm [2] [%] | inhibition of growth at 20 ppm [3] [%] |
| --- | --- | --- | --- |
| Cc1c(C2CN(C(=O)c3cc(-c4ccc(F)cc4)on3)Cc3ccccc32)cc(C#N)n1C (stereo not drawn) [Compound P-18, 4-[2-[5-(4-fluorophenyl)isoxazole-3-carbonyl]-3,4-dihydro-1H-isoquinolin-4-yl]-1,5-dimethyl-pyrrole-2-carbonitrile] | ≥ 80 |  |  |
| O=C(c1cc(-c2ccc(F)cc2F)on1)N1Cc2ccccc2C(c2cncnc2)C1 (stereo not drawn) [Compound P-4, [5-(2,4-difluorophenyl)isoxazol-3-yl]-(4-pyrimidin-5-yl-3,4-dihydro-1H-isoquinolin-2-yl)methanone] | ≥ 80 | ≥ 80 | ≥ 80 |
| Cc1nc(C2CN(C(=O)c3cc(-c4ccc(F)cc4F)on3)Cc3ccccc32)no1 (stereo not drawn) [Compound P-25, [5-(2,4-difluorophenyl)isoxazol-3-yl]-[4-(5-methyl-1,2,4-oxadiazol-3-yl)-3,4-dihydro-1H-isoquinolin-2-yl]methanone] | ≥ 80 |  |  |
| Cc1c(C2CN(C(=O)c3cc(-c4ccccc4)on3)Cc3ccccc32)cc(C#N)n1C (stereo not drawn) [Compound P-26, 1,5-dimethyl-4-[2-(5-phenylisoxazole-3-carbonyl)-3,4-dihydro-1H-isoquinolin-4-yl]pyrrole-2-carbonitrile] | ≥ 80 |  |  |
| O=C(c1cc(-c2ccccc2)on1)N1Cc2ccccc2C(c2cnccc2Cl)C1 (stereo not drawn) [Compound P-30, [4-(4-chloro-3-pyridyl)-3,4-dihydro-1H-isoquinolin-2-yl]-(5-phenylisoxazol-3-yl)methanone] | ≥ 80 |  |  |
| Cc1c(C2CN(C(=O)c3cc(-c4ccc(F)cc4F)on3)Cc3ccccc32)cc(C#N)n1C (stereo not drawn) [Compound P-20, 4-[2-[5-(2,4-difluorophenyl)isoxazole-3-carbonyl]-3,4-dihydro-1H-isoquinolin-4-yl]-1,5-dimethyl-pyrrole-2-carbonitrile] | ≥ 80 |  |  |
| O=C(c1cc(-c2ccc(F)cc2F)on1)N1Cc2ccccc2C(c2cnccn2)C1 (stereo not drawn) [Compound P-8, [5-(2,4-difluorophenyl)isoxazol-3-yl]-(4-pyrazin-2-yl-3,4-dihydro-1H-isoquinolin-2-yl]methanone] | ≥ 80 | ≥ 80 | ≥ 80 |
| Cc1c(C2CN(C(=O)c3nnc(-c4ccc(F)cc4F)s3)Cc3ccccc32)nc(Cl)n1C (stereo not drawn) [Compound P-11, [4-(2-chloro-1,5-dimethyl-imidazol-4-yl)-3,4-dihydro-1H-isoquinolin-2-yl]-[5-(2,4-difluorophenyl)-1,3,4-thiadiazol-2-yl]methanone] | ≥ 80 | ≥ 80 |  |
| Cc1c(C2CN(C(=O)c3cc(-c4ccc(F)cc4F)on3)Cc3ccccc32)nc(Cl)n1C (stereo not drawn) [Compound P-16, [4-(2-chloro-1,5-dimethyl-imidazol-4-yl)-3,4-dihydro-1H-isoquinolin-2-yl]-[5-(2,4-difluorophenyl)isoxazol-3-yl]methanone] | ≥ 80 |  |  |
| Cn1cc(C2CN(C(=O)c3cc(-c4ccc(F)cc4F)on3)Cc3ccccc32)nn1 (stereo not drawn) [Compound P-35, [5-(2,4-difluorophenyl)isoxazol-3-yl]-[4-(1-methyltriazol-4-yl)-3,4-dihydro-1H-isoquinolin-2-yl]methanone] | ≥ 80 |  |  |
| O=C(c1cc(-c2ccc(F)cc2F)on1)N1Cc2ccccc2C(c2cccnn2)C1 (stereo not drawn) [Compound P-36, [5-(2,4-difluorophenyl)isoxazol-3-yl]-(4-pyridazin-3-yl-3,4-dihydro-1H-isoquinolin-2-yl)methanone] | ≥ 80 |  |  |
| Cc1ncc(C2CN(C(=O)c3cc(-c4ccc(F)cc4F)on3)Cc3ccccc32)cc1Cl (stereo not drawn) [Compound P-23, [4-(5-chloro-6-methyl-3-pyridyl)-3,4-dihydro-1H-isoquinolin-2-yl]-[5-(2,4-difluorophenyl)isoxazol-3-yl]methanone] | ≥ 80 |  |  |
| O=C(c1cc(-c2ccc(F)cc2F)on1)N1Cc2ccccc2C(c2ccc(F)nc2)C1 (stereo not drawn) [Compound P-12, [5-(2,4-difluorophenyl)isoxazol-3-yl]-[4-(6-fluoro-3-pyridyl)-3,4-dihydro-1H-isoquinolin-2-yl]methanone] | ≥ 80 |  | ≥ 80 |
| Cc1nc(C2CN(C(=O)c3cc(-c4ccccc4)on3)Cc3ccccc32)c(Cl)n1C (stereo not drawn) [Compound P-31, [4-(5-chloro-1,2-dimethyl-imidazol-4-yl)-3,4-dihydro-1H-isoquinolin-2-yl]-(5-phenylisoxazol-3-yl)methanone] | ≥ 80 |  |  |
| Cc1ncc(C2CN(C(=O)c3cc(-c4ccccc4)on3)Cc3ccccc32)cc1Cl (stereo not drawn) [Compound P-29, [4-(5-chloro-6-methyl-3-pyridyl)-3,4-dihydro-1H-isoquinolin-2-yl]-(5-phenylisoxazol-3-yl)methanone] | ≥ 80 |  |  |
| Cn1nc(C2CN(C(=O)c3cc(-c4ccc(F)cc4F)on3)Cc3ccccc32)cc1Br (stereo not drawn) [Compound P-21, [4-(5-bromo-1-methyl-pyrazol-3-yl)-3,4-dihydro-1H-isoquinolin-2-yl]-[5-(2,4-difluorophenyl)isoxazol-3-yl]methanone] | ≥ 80 |  |  |
| Cc1cncc(C2CN(C(=O)c3cc(-c4ccc(F)cc4F)on3)Cc3ccccc32)c1 (stereo not drawn) [Compound P-22, [5-(2,4-difluorophenyl)isoxazol-3-yl]-[4-(5-methyl-3-pyridyl)-3,4-dihydro-1H-isoquinolin-2-yl]methanone] | ≥ 80 |  |  |
| Cc1ncccc1C1CN(C(=O)c2cc(-c3ccc(F)cc3F)on2)Cc2ccccc21 (stereo not drawn) [Compound P-13, [5-(2,4-difluorophenyl)isoxazol-3-yl]-[4-(2-methyl-3-pyridyl)-3,4-dihydro-1H-isoquinolin-2-yl]methanone] | ≥ 80 | ≥ 80 |  |
| Cn1c(Cl)nc(C2CN(C(=O)c3cc(-c4ccc(F)cc4F)on3)Cc3ccccc32)c1Cl (stereo not drawn) [Compound P-10, [4-(2,5-dichloro-1-methyl-imidazol-4-yl)-3,4-dihydro-1H-isoquinolin-2-yl]-[5-(2,4-difluorophenyl)isoxazol-3-yl]methanone] | ≥ 80 | ≥ 80 |  |
| O=C(c1cc(-c2ccccc2)on1)N1Cc2ccccc2C(c2ccc(F)nc2)C1 (stereo not drawn) [Compound P-34, [4-(6-fluoro-3-pyridyl)-3,4-dihydro-1H-isoquinolin-2-yl]-(5-phenylisoxazol-3-yl)methanone] | ≥ 80 |  |  |
| Cc1nc(C2CN(C(=O)c3cc(-c4ccc(F)cc4F)on3)Cc3ccccc32)nn1C (stereo not drawn) [Compound P-39, [5-(2,4-difluorophenyl)isoxazol-3-yl]-[4-(1,5-dimethyl-1,2,4-triazol-3-yl)-3,4-dihydro-1H-isoquinolin-2-yl]methanone] | ≥ 80 |  |  |
| Cc1ccncc1C1CN(C(=O)c2cc(-c3ccc(F)cc3F)on2)Cc2ccccc21 (stereo not drawn) [Compound P-14, [5-(2,4-difluorophenyl)isoxazol-3-yl]-[4-(4-methyl-3-pyridyl)-3,4-dihydro-1H-isoquinolin-2-yl]methanone] | ≥ 80 | ≥ 80 |  |
| Cn1cnc(C2CN(C(=O)c3cc(-c4ccc(F)cc4F)on3)Cc3ccccc32)n1 (stereo not drawn) [Compound P-33, [5-(2,4-difluorophenyl)isoxazol-3-yl]-[4-(1-methyl-1,2,4-triazol-3-yl)-3,4-dihydro-1H-isoquinolin-2-yl]methanone] | ≥ 80 |  |  |
| Cc1c(C2CN(C(=O)c3nnc(-c4ccc(F)cc4F)s3)Cc3ccccc32)cc(C#N)n1C (stereo not drawn) [Compound P-28, 4-[2-(5-(2,4-difluorophenyl)-1,3,4-thiadiazole-2-carbonyl]-3,4-dihydro-1H-isoquinolin-4-yl]-1,5-dimethyl-pyrrole-2-carbonitrile] | ≥ 80 |  |  |
| CC1(c2cccnc2)CN(C(=O)c2cc(-c3ccc(F)cc3F)on2)Cc2ccccc21 (stereo not drawn) [Compound P-27, [5-(2,4-difluorophenyl)isoxazol-3-yl]-[4-methyl-4-(3-pyridyl)-1,3-dihydroisoquinolin-2-yl]methanone] | ≥ 80 |  |  |
| O=C(c1cc(-c2ccc(F)cc2F)on1)N1Cc2ccccc2C(c2cnccc2Cl)C1 (stereo not drawn) [Compound P-24, [4-(4-chloro-3-pyridyl)-3,4-dihydro-1H-isoquinolin-2-yl]-[5-(2,4-difluorophenyl)isoxazol-3-yl]methanone] | ≥ 80 |  |  |
| Cc1nc(C2CN(C(=O)c3cc(-c4ccc(F)cc4F)on3)Cc3ccccc32)c(Cl)n1C (stereo not drawn) [Compound P-17, [4-(5-chloro-1,2-dimethyl-imidazol-4-yl)-3,4-dihydro-1H-isoquinolin-2-yl]-[5-(2,4-difluorophenyl)isoxazol-3-yl]methanone] | ≥ 80 |  |  |
| CC1(c2cccnc2)CN(C(=O)c2cc(-c3ccccc3)on2)Cc2ccccc21 (stereo not drawn) [Compound P-32, [4-methyl-4-(3-pyridyl)-1,3-dihydroisoquinolin-2-yl]-(5-phenylisoxazol-3-yl)methanone] | ≥ 80 |  |  |
| O=C(c1cc(-c2ccc(F)cc2F)on1)N1Cc2ccccc2C(c2ccccn2)C1 (stereo not drawn) [Compound P-15, [5-(2,4-difluorophenyl)isoxazol-3-yl]-[4-(2-pyridyl)-3,4-dihydro-1H-isoquinolin-2-yl]methanone] | ≥ 80 |  | ≥ 80 |
